# PMC2868945 (Bioorganic & medicinal chemistry, 2010)
# Where “and” joins values, the source holds several entries; their conditions need not be identical. Equal entries are not always repeated. Entries after “also recorded” stand apart in the source; their conditions may differ.
# What was measured:
# [1] = target: recombinant lumazine synthase of M. tuberculosis (Mycobacterium tuberculosis, UniProt P9WHE9); experiment: Kinetic assay of lumazine synthase inhibitors; assay type: biochemical; settings: for inhibitory activity against lumazine synthase (in words): M. tuberculosis LS; for Kcat (rate constant for ES ⇌ E + P) / Mechanism / Kis (inhibitor dissociation constant for ES + I ⇌ ESI): LS; for Kcat (rate constant for ES ⇌ E + P): fit parameter of the inhibitor's data set; for Mechanism: most likely inhibition model (DynaFit); for Kis (inhibitor dissociation constant for ES + I ⇌ ESI): pH 7.0, 27 °C, pyrimidinedione substrate varied
# [2] = target: recombinant riboflavin synthase of M. tuberculosis (Mycobacterium tuberculosis, UniProt P9WK35); experiment: Kinetic assay of riboflavin synthase inhibitors; assay type: biochemical; settings: for inhibitory activity against riboflavin synthase (in words): M. tuberculosis RS; for Kis (inhibitor dissociation constant for ES + I ⇌ ESI): pH 7.0, 27 °C; for Mechanism: most likely inhibition model (DynaFit)
# [3] = target: T1, M. tuberculosis lumazine synthase (Mycobacterium tuberculosis, UniProt P9WHE9); settings: cited from earlier work
# [4] = target: T1, M. tuberculosis lumazine synthase; experiment: biochemical; assay type: binding; settings: for binding enthalpy ΔH: 100 mM potassium phosphate buffer, pH 7.0, 30 °C, apparent; for entropy ΔS of binding: calculated from ΔG = ΔH − TΔS
# [5] = target: icosahedral lumazine synthase from Bacillus anthracis (Bacillus anthracis, UniProt Q81MB5); assay type: binding
# [6] = target: pentameric lumazine synthase from Schizosaccharomyces pombe (Schizosaccharomyces pombe, UniProt Q9UUB1); assay type: binding; settings: same experimental limits as for the M. tuberculosis enzyme
# [7] = RS, fit parameter of the inhibitor's data set
# Chain of recombinant lumazine synthase of M. tuberculosis (P9WHE9 whole entry): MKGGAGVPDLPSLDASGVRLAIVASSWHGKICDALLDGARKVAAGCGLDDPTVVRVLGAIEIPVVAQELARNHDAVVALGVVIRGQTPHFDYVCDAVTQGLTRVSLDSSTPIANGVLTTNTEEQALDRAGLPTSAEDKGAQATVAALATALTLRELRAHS
# T1 sequence (P9WHE9 whole entry): as above
# Chain of recombinant riboflavin synthase of M. tuberculosis (P9WK35 whole entry): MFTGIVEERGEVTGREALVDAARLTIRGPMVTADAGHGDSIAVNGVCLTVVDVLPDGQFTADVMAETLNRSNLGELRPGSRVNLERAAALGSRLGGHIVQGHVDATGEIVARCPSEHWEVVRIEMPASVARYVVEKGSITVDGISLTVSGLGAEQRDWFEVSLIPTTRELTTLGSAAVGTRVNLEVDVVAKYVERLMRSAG
# Chain of pentameric lumazine synthase from Schizosaccharomyces pombe (Q9UUB1 whole entry): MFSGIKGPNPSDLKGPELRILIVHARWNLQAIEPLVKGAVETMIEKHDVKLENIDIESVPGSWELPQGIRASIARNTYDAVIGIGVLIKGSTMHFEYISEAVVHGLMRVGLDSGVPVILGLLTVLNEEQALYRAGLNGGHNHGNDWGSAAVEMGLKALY
# Chain of icosahedral lumazine synthase from Bacillus anthracis (Q81MB5 whole entry, looked up): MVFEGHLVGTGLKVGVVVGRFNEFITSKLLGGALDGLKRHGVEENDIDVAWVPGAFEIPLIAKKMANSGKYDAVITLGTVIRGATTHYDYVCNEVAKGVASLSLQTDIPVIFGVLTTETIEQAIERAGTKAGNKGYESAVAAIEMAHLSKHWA
Molecule,inhibitory activity against lumazine synthase (in words) [1],inhibitory activity against riboflavin synthase (in words) [2],Kcat (rate constant for ES ⇌ E + P) [1],Mechanism [1],Kis (inhibitor dissociation constant for ES + I ⇌ ESI) [1],"Ks (substrate dissociation constant for E + S ⇌ ES) [2, 7]",Kis (inhibitor dissociation constant for ES + I ⇌ ESI) ([2]; RS),also measured
"1,1-Difluoro-4-(2-oxo-1,2-dihydrobenzo[cd]indole-6-sulfonamido)butylphosphonic Acid [Compound 71]",inactive,inactive,–,–,–,–,–,–
"1,1-Difluoro-4-(2-oxo-1,2-dihydrobenzo[cd]indole-6-sulfonamido)hexylphosphonic Acid [Compound 73]",inactive,inactive,–,–,–,–,–,–
"1,1-Difluoro-4-(2-oxo-1,2-dihydrobenzo[cd]indole-6-sulfonamido)pentylphosphonic Acid [Compound 72]",poor inhibitory activity,inactive,0.57 ± 0.01 m^−1,Mixed,518 µM and 518 ± 94 µM,4.1 ± 0.3 µM,> 1000 µM,–
"4-(2-Oxo-1,2-dihydrobenzo[cd]indole-6-sulfonamido)pentylphosphonic Acid [Compound 55]",absolutely no inhibitory activity,–,–,–,–,–,–,–
"5-(2-Oxo-1,2-dihydrobenzo[cd]indole-6-sulfonamido)hexyl Dihydrogen Phosphate [Compound 40]",–,"weak, uncompetitive inhibitors",0.45 ± 0.01 m^−1,Uncompetitive,723 ± 91 µM,9.8 ± 0.6 µM,898 ± 187 µM,"Kcat (rate constant for ES ⇌ E + P) [2, 7]: 0.56 ± 0.01 m^−1; Mechanism ([2]; RS): Uncompetitive"
"O=C(O)CNS(=O)(=O)c1ccc2c3c(cccc13)C(=O)N2 [Compound 9, 2-(2-oxo-1,2-dihydrobenzo[cd]indole-6-sulfonamido)acetic acid]",demonstrated inhibition,–,–,–,58 µM,–,–,–
"O=c1[nH]c(Cl)c(CCCCOP(=O)(O)O)c(=O)[nH]1 [Compound 11, 4-(6-chloro-2,4-dioxo-1,2,3,4-tetrahydropyrimidin-5-yl)butyl dihydrogen phosphate]",–,–,–,–,–,–,–,Ki ([3]; M. tuberculosis lumazine synthase): 0.88 µM; inhibition constant (in words) ([3]; lumazine synthase): nanomolar range
"O=C1Nc2ccc(S(=O)(=O)NCCOP(=O)(O)O)c3cccc1c23 [Compound 26, 2-(2-Oxo-1,2-dihydrobenzo[cd]indole-6-sulfonamido)ethyl Dihydrogen Phosphate]",–,–,0.41 ± 0.01 m^−1,Partial,125 ± 57 µM,5.7 ± 0.04 µM,> 1000 µM,–
"O=C1Nc2ccc(S(=O)(=O)NCCCOP(=O)(O)O)c3cccc1c23 [Compound 27, 3-(2-Oxo-1,2-dihydrobenzo[cd]indole-6-sulfonamido)propyl Dihydrogen Phosphate]",–,–,0.45 ± 0.01 m^−1,Mixed,434 ± 115 µM,5.6 ± 0.04 µM,> 1000 µM,"Kd [4]: 112 µM; binding enthalpy ΔH ([4]; ITC): -5.2 ± 0.7 kcal/mol; entropy ΔS of binding ([4]; ITC, 30 °C): 0.98 cal·mol^−1·deg^−1"
"O=C1Nc2ccc(S(=O)(=O)NCCO)c3cccc1c23 [Compound 31, N-(2-Hydroxyethyl)-2-oxo-1,2-dihydrobenzo[cd]indole-6-sulfonamide]",totally inactive,–,–,–,–,–,–,–
"CCC(O)CNS(=O)(=O)c1ccc2c3c(cccc13)C(=O)N2 (stereo not drawn) [Compound 32, N-(2-Hydroxybutyl)-2-oxo-1,2-dihydrobenzo[cd]indole-6-sulfonamide]",totally inactive,–,–,–,–,–,–,–
"O=C1Nc2ccc(S(=O)(=O)NCCCCCO)c3cccc1c23 [Compound 33, N-(5-Hydroxypentyl)-2-oxo-1,2-dihydrobenzo[cd]indole-6-sulfonamide]",totally inactive,–,–,–,–,–,–,–
"O=C1Nc2ccc(S(=O)(=O)NCCCCOP(=O)(O)O)c3cccc1c23 [Compound 38, 4-(2-Oxo-1,2-dihydrobenzo[cd]indole-6-sulfonamido)butyl Dihydrogen Phosphate]",–,–,0.44 ± 0.01 m^−1,Mixed,572 ± 210 µM,6.5 ± 0.3 µM,> 1000 µM,"Kd [4]: 130 µM; binding enthalpy ΔH ([4]; ITC): -7.6 ± 1.3 kcal/mol; entropy ΔS of binding ([4]; ITC, 30 °C): −7.2 cal·mol^−1·deg^−1; stoichiometry (n) of the binding reaction ([4]; ITC, 30 °C, inhibitor molecules per active site): 1; binding detected by titration calorimetry (in words) [5]: do not indicate a binding reaction; also recorded: did not detect binding; binding detected by titration calorimetry (in words) [6]: do not indicate a binding reaction; also recorded: did not detect binding"
"O=C1Nc2ccc(S(=O)(=O)NCCCCCOP(=O)(O)O)c3cccc1c23 [Compound 39, 5-(2-oxo-1,2-dihydrobenzo[cd]indole-6-sulfonamido)pentyl Dihydrogen Phosphate]",–,"weak, uncompetitive inhibitors",0.45 ± 0.01 m^−1,Uncompetitive,563 ± 56 µM,9.8 ± 0.6 µM,971 ± 179 µM,Mechanism ([2]; RS): Uncompetitive
"O=C1Nc2ccc(S(=O)(=O)NCCCCP(=O)(O)O)c3cccc1c23 [Compound 54, 4-(2-Oxo-1,2-dihydrobenzo[cd]indole-6-sulfonamido)butylphosphonic Acid]",absolutely no inhibitory activity,–,–,–,–,–,–,–
"CCOC(=O)C(=O)Nc1c(Cl)[nH]c(=O)[nH]c1=O [Compound 77, Ethyl 2-(6-Chloro-2,4,dioxo-1,2,3,4-tetrahydropyrimidin-5-ylamino)-2-oxoethanoate]",–,"weak, uncompetitive inhibitors",0.61 ± 0.02 m^−1,Mixed,> 1000 µM,7.8 ± 0.3 µM,897 ± 104 µM,Mechanism ([2]; RS): Uncompetitive
